molecular target: T1, hGPR119 (Homo sapiens, UniProt Q8TDV5); experiment: In vitro cyclic AMP assay (Cisbio HTRF) in CHO-hGPR119 cells; type: cell-based; details: 1 h, cAMP, 1 μM, 60 min, read-out: Induction (% induction at 1 μM)
T1 construct: expressed in transfected cells; host or cells: CHO cells (CHO-hGPR119)
T1 sequence (Q8TDV5 1-335): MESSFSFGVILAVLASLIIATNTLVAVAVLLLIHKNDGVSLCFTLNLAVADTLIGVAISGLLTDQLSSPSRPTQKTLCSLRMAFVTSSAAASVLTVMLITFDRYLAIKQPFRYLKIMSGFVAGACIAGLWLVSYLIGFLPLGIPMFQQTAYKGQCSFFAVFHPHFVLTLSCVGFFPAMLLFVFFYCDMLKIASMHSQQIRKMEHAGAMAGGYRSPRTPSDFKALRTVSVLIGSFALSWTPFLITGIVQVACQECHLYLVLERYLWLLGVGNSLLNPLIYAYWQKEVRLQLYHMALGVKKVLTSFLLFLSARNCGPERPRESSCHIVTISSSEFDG
Protocol: cAMP measurements were done using Cisbio dynamic 2 HTRF kit according to the manufacturer's protocol. Briefly, CHO-hGPR119 cells were plated at a cell density of 5000 cells/well/5 μl into a white small volume 384 well plate. The final concentrations of IBMX and DMSO used were 1 mM and 0.5% respectively. Cells were treated with various concentrations of the test compound for 60 min at room temperature. Cells were lysed by buffer containing Anti-cAMP antibody and d2-cAMP reagents and incubated for 1 hour at room temperature. HTRF was measured at 337 nm excitation and emission wavelengths of 665 nm and 620 nm on a microplate reader (Flurostar, BMG Labtech). Graphpad prism software was utilized for EC50 determinations.

Compound	activation at 1 µM [%]
CC(C)c1noc(N2CCC(C(C)Oc3nn4cc(-c5ccncc5)nc4s3)CC2)n1 (stereo not shown) [Compound 1050, 3-isopropyl-5-(4-(1-((6-(pyridin-4-yl)imidazo[2,1-b][1,3,4]thiadiazol-2-yl)oxy)ethyl)piperidin-1-yl)-1,2,4-oxadiazole]	68
CC(C)c1noc(C2CCN(c3nn4cc(-c5ccncc5)nc4s3)CC2)n1 [Compound 1051, 3-isopropyl-5-(1-(6-(pyridin-4-yl)imidazo[2,1-b][1,3,4]thiadiazol-2-yl)piperidin-4-yl)-1,2,4-oxadiazole]	7
CC(C)c1noc(C2CCN(c3nn4c(Cl)c(-c5ccncc5)nc4s3)CC2)n1 [Compound 1052, 5-(1-(5-chloro-6-(pyridin-4-yl)imidazo[2,1-b][1,3,4]thiadiazol-2-yl)piperidin-4-yl)-3-isopropyl-1,2,4-oxadiazole]	12
CC(C)c1noc(N2CCC(COc3nn4cc(-c5ccc(C#N)cc5)nc4s3)CC2)n1 [Compound 1053, 4-(2-((1-(3-isopropyl-1,2,4-oxadiazol-5-yl)piperidin-4-yl)methoxy)imidazo[2,1-b][1,3,4]thiadiazol-6-yl)benzonitrile]	49
CC(C)c1noc(N2CCC(COc3nn4cc(-c5ccncc5)nc4s3)CC2)n1 [Compound 1054, 3-isopropyl-5-(4-(((6-(pyridin-4-yl)imidazo[2,1-b][1,3,4]thiadiazol-2-yl)oxy)methyl)piperidin-1-yl)-1,2,4-oxadiazole]	16
CC(C)c1noc(N2CCC(C(C)Oc3nn4cc(-c5ccc(S(C)(=O)=O)nc5)nc4s3)CC2)n1 (stereo not shown) [Compound 1055, 3-isopropyl-5-(4-(1-((6-(6-(methylsulfonyl)pyridin-3-yl)imidazo[2,1-b][1,3,4]thiadiazol-2-yl)oxy)ethyl)piperidin-1-yl)-1,2,4-oxadiazole]	76
CCc1cnc(N2CCC(C(C)Oc3nn4cc(-c5ccncc5)nc4s3)CC2)nc1 (stereo not shown) [Compound 1056, 2-(1-(1-(5-ethylpyrimidin-2-yl)piperidin-4-yl)ethoxy)-6-(pyridin-4-yl)imidazo[2,1-b][1,3,4]thiadiazole]	73
CC(C)c1noc(N2CCC(C(C)Oc3nn4cc(-c5ccc(S(C)(=O)=O)cc5)nc4s3)CC2)n1 (stereo not shown) [Compound 1057, 3-isopropyl-5-(4-(1-((6-(4-(methylsulfonyl)phenyl)imidazo[2,1-b][1,3,4]thiadiazol-2-yl)oxy)ethyl)piperidin-1-yl)-1,2,4-oxadiazole]	82
CC(C)c1noc(N2CCC([C@@H](C)Oc3nn4cc(-c5ccc(S(C)(=O)=O)nc5)nc4s3)CC2)n1 [Compound 1058, (R)-3-isopropyl-5-(4-(1-((6-(6-(methylsulfonyl)pyridin-3-yl)imidazo[2,1-b][1,3,4]thiadiazol-2-yl)oxy)ethyl)piperidin-1-yl)-1,2,4-oxadiazole]	73
CC(C)c1noc(N2CCC([C@@H](C)Oc3nn4cc(-c5ccc(S(C)(=O)=O)cc5)nc4s3)CC2)n1 [Compound 1060, (R)-3-isopropyl-5-(4-(1-((6-(4-(methylsulfonyl)phenyl)imidazo[2,1-b][1,3,4]thiadiazol-2-yl)oxy)ethyl)piperidin-1-yl)-1,2,4-oxadiazole]	65
CC(C)c1noc(N2CCC(C(C)Oc3nn4c(F)c(-c5ccc(S(C)(=O)=O)cc5)nc4s3)CC2)n1 (stereo not shown) [Compound 1061, 5-(4-(1-((5-fluoro-6-(4-(methylsulfonyl)phenyl)imidazo[2,1-b][1,3,4]thiadiazol-2-yl)oxy)ethyl)piperidin-1-yl)-3-isopropyl-1,2,4-oxadiazole]	79
CCc1cnc(N2CCC([C@@H](C)Oc3nn4cc(-c5ccc(S(C)(=O)=O)cc5)nc4s3)CC2)nc1 [Compound 1062, (R)-2-(1-(1-(5-ethylpyrimidin-2-yl)piperidin-4-yl)ethoxy)-6-(4-(methylsulfonyl)phenyl)imidazo[2,1-b][1,3,4]thiadiazole]	78
CC(C)c1noc(N2CCC([C@@H](C)Oc3nn4cc(-c5ccnc(F)c5)nc4s3)CC2)n1 [Compound 1065, (R)-5-(4-(1-((6-(2-fluoropyridin-4-yl)imidazo[2,1-b][1,3,4]thiadiazol-2-yl)oxy)ethyl)piperidin-1-yl)-3-isopropyl-1,2,4-oxadiazole]	62

Results, then the molecule that gave them:

activation at 1 µM [%]	Compound
72	CC(C)c1noc(N2CCC([C@@H](C)Oc3nn4c(F)c(-c5ccc(S(C)(=O)=O)cc5)nc4s3)CC2)n1 [Compound 1066, (R)-5-(4-(1-((5-fluoro-6-(4-(methylsulfonyl)phenyl)imidazo[2,1-b][1,3,4]thiadiazol-2-yl)oxy)ethyl)piperidin-1-yl)-3-isopropyl-1,2,4-oxadiazole]
59	CC(C)c1noc(N2CCC([C@H](C)Oc3nn4cc(-c5cc[n+]([O-])cc5)nc4s3)CC2)n1 [Compound 1068, (S)-4-(2-(1-(1-(3-isopropyl-1,2,4-oxadiazol-5-yl)piperidin-4-yl)ethoxy)imidazo[2,1-b][1,3,4]thiadiazol-6-yl)pyridine 1-oxide]
65	CC(Oc1nn2cc(-c3ccc(S(C)(=O)=O)cc3)nc2s1)C1CCN(c2ncc(Cl)cn2)CC1 (stereo not shown) [Compound 1069, 2-(1-(1-(5-chloropyrimidin-2-yl)piperidin-4-yl)ethoxy)-6-(4-(methylsulfonyl)phenyl)imidazo[2,1-b][1,3,4]thiadiazole]
55	CC(C)c1cnc(N2CCC(C(C)Oc3nn4cc(-c5ccc(S(C)(=O)=O)cc5)nc4s3)CC2)nc1 (stereo not shown) [Compound 1070, 2-(1-(1-(5-isopropylpyrimidin-2-yl)piperidin-4-yl)ethoxy)-6-(4-(methylsulfonyl)phenyl)imidazo[2,1-b][1,3,4]thiadiazole]
33	CC(Oc1nn2cc(-c3ccc(S(C)(=O)=O)cc3)nc2s1)C1CCN(c2nc(C(F)(F)F)no2)CC1 (stereo not shown) [Compound 1073, 2-(1-(1-(3-(trifluoromethyl)-1,2,4-oxadiazol-5-yl)piperidin-4-yl)ethoxy)-6-(4-(methylsulfonyl)phenyl)imidazo[2,1-b][1,3,4]thiadiazole]
44	CC(C)c1noc(N2CCC(C(C)Oc3nn4cc(-c5cnc(S(C)(=O)=O)nc5)nc4s3)CC2)n1 (stereo not shown) [Compound 1074, 2-(1-(1-(3-isopropyl-1,2,4-oxadiazol-5-yl)piperidin-4-yl)ethoxy)-6-(2-(methylsulfonyl)pyrimidin-5-yl)imidazo[2,1-b][1,3,4]thiadiazole]
64	CC(C)c1noc(N2CCC(C(C)Oc3nn4cc(-c5ccc(Cl)nc5)nc4s3)CC2)n1 (stereo not shown) [Compound 1075, 2-(1-(1-(3-isopropyl-1,2,4-oxadiazol-5-yl)piperidin-4-yl)ethoxy)-6-(6-chloropyridin-3-yl)imidazo[2,1-b][1,3,4]thiadiazole]
15	C[C@@H](Oc1nn2cc(-c3ccc(S(C)(=O)=O)cc3)nc2s1)C1CCN(c2nc(C(F)(F)F)no2)CC1 [Compound 1076, 2-((R)-1-(1-(3-(trifluoromethyl)-1,2,4-oxadiazol-5-yl)piperidin-4-yl)ethoxy)-6-(4-(methylsulfonyl)phenyl)imidazo[2,1-b][1,3,4]thiadiazole]
33	C[C@H](Oc1nn2cc(-c3ccc(S(C)(=O)=O)cc3)nc2s1)C1CCN(c2nc(C(F)(F)F)no2)CC1 [Compound 1077, 2-((S)-1-(1-(3-(trifluoromethyl)-1,2,4-oxadiazol-5-yl)piperidin-4-yl)ethoxy)-6-(4-(methylsulfonyl)phenyl)imidazo[2,1-b][1,3,4]thiadiazole]
54	CC(C)c1noc(N2CCC([C@H](C)Oc3nn4cc(-c5ccc(S(C)(=O)=O)c(F)c5)nc4s3)CC2)n1 [Compound 1078, 2-((S)-1-(1-(3-isopropyl-1,2,4-oxadiazol-5-yl)piperidin-4-yl)ethoxy)-6-(3-fluoro-4-(methylsulfonyl)phenyl)imidazo[2,1-b][1,3,4]thiadiazole]
87	CC(C)c1noc(N2CCC(C(C)Oc3nn4cc(-c5cnc(Cl)cn5)nc4s3)CC2)n1 (stereo not shown) [Compound 1079, 2-(1-(1-(3-isopropyl-1,2,4-oxadiazol-5-yl)piperidin-4-yl)ethoxy)-6-(5-chloropyrazin-2-yl)imidazo[2,1-b][1,3,4]thiadiazole]
80	CCCc1cnc(N2CCC([C@H](C)Oc3nn4cc(-c5ccncc5F)nc4s3)CC2)nc1 [Compound 1082, 2-((S)-1-(1-(5-propylpyrimidin-2-yl)piperidin-4-yl)ethoxy)-6-(3-fluoropyridin-4-yl)imidazo[2,1-b][1,3,4]thiadiazole]
77	C[C@H](Oc1nn2cc(-c3ccc(S(C)(=O)=O)cc3)nc2s1)C1CCN(c2ncc(Cl)cn2)CC1 [Compound 1083, 2-((S)-1-(1-(5-chloropyrimidin-2-yl)piperidin-4-yl)ethoxy)-6-(4-(methylsulfonyl)phenyl)imidazo[2,1-b][1,3,4]thiadiazole]

same assay, conditions: cAMP, class symbols, legend not given

Compound	EC50
CC(C)c1noc(N2CCC([C@@H](C)Oc3nn4cc(-c5ccc(S(C)(=O)=O)nc5)nc4s3)CC2)n1 [Compound 1058, (R)-3-isopropyl-5-(4-(1-((6-(6-(methylsulfonyl)pyridin-3-yl)imidazo[2,1-b][1,3,4]thiadiazol-2-yl)oxy)ethyl)piperidin-1-yl)-1,2,4-oxadiazole]	A+
CC(C)c1noc(N2CCC([C@@H](C)Oc3nn4cc(-c5ccc(S(C)(=O)=O)cc5)nc4s3)CC2)n1 [Compound 1060, (R)-3-isopropyl-5-(4-(1-((6-(4-(methylsulfonyl)phenyl)imidazo[2,1-b][1,3,4]thiadiazol-2-yl)oxy)ethyl)piperidin-1-yl)-1,2,4-oxadiazole]	A+
CCc1cnc(N2CCC([C@@H](C)Oc3nn4cc(-c5ccc(S(C)(=O)=O)cc5)nc4s3)CC2)nc1 [Compound 1062, (R)-2-(1-(1-(5-ethylpyrimidin-2-yl)piperidin-4-yl)ethoxy)-6-(4-(methylsulfonyl)phenyl)imidazo[2,1-b][1,3,4]thiadiazole]	A+

Further lines, results first:

EC50	Compound
A+	CC(C)c1noc(N2CCC([C@@H](C)Oc3nn4c(F)c(-c5ccc(S(C)(=O)=O)cc5)nc4s3)CC2)n1 [Compound 1066, (R)-5-(4-(1-((5-fluoro-6-(4-(methylsulfonyl)phenyl)imidazo[2,1-b][1,3,4]thiadiazol-2-yl)oxy)ethyl)piperidin-1-yl)-3-isopropyl-1,2,4-oxadiazole]
A+	CC(Oc1nn2cc(-c3ccc(S(C)(=O)=O)cc3)nc2s1)C1CCN(c2ncc(Cl)cn2)CC1 (stereo not shown) [Compound 1069, 2-(1-(1-(5-chloropyrimidin-2-yl)piperidin-4-yl)ethoxy)-6-(4-(methylsulfonyl)phenyl)imidazo[2,1-b][1,3,4]thiadiazole]

Source: US10208030B2, “GPR119 agonist compounds” (Mankind Pharma Ltd., priority 2016, dated 2019)
